The values that follow come from ChEMBL document CHEMBL4616720 (J Med Chem, 2020).

The nature of series [1]: Toxicity in BALB/c nude mouse xenografted with human HCT116 cells assessed as body weight loss at 25 to 50 mg/kg, ip administered every 3 days for 21 days measured on day 7 relative to control. In kind it is organism-based, HCT-116. As to conditions: in vivo.
Series [2] has as its system A549. Kind of series: Antiproliferative activity against human A549 cells assessed as reduction in cell growth measured after 48 hrs by CCK8 assay. The format is functional, cell-based. To be noted: A549, 48 h. On the technique in general: Tetrazolium assays rely on reduction of a dye to a coloured formazan, in cell work by metabolically active cells.
In series [3] the test system is A549. Kind of series: Induction of apoptosis in human A549 cells assessed as live cells at 40 uM measured after 24 hrs by Annexin V-FITC/propidium iodide staining based FACSClibur flow cytometry analysis (reference value: 97 %). In kind it is functional.
Series [4] relates to A549. The experiment in a line: Induction of apoptosis in human A549 cells assessed as early apoptotic cells at 40 uM measured after 24 hrs by Annexin V-FITC/propidium iodide staining based FACSClibur flow cytometry analysis (reference value: 0.35 %). In kind it is functional. On the technique in general: Flow cytometry measures light scatter and fluorescence of single cells or particles in a stream.

Series [5] deals with A549. The experiment in a line: Induction of apoptosis in human A549 cells assessed as live cells at 40 uM measured after 48 hrs by Annexin V-FITC/propidium iodide staining based FACSClibur flow cytometry analysis (reference value: 95.5 %). The format is functional.
The test system of series [6] is A549. Kind of series: Induction of apoptosis in human A549 cells assessed as late apoptotic cells at 40 uM measured after 48 hrs by Annexin V-FITC/propidium iodide staining based FACSClibur flow cytometry analysis (reference value: 3.63 %). The format is functional.
Series [7] has as its system A549. The experiment in a line: Induction of apoptosis in human A549 cells assessed as necrotic cells at 40 uM measured after 48 hrs by Annexin V-FITC/propidium iodide staining based FACSClibur flow cytometry analysis (reference value: 0.49 %). In kind it is functional.
Series [8] has as its target Histone deacetylase 1 (Homo sapiens, UniProt Q13547). Kind of series: Inhibition of HDAC1 (unknown origin) using Boc-Lys(Ac)-pNA as substrate preincubated for 20 mins followed by substrate addition and further incubated for 90 mins by fluorescence assay.
For series [9], the target named is T1, Protein deacetylase HDAC6 (Homo sapiens, UniProt Q9UBN7).
T1 sequence (Q9UBN7 whole entry): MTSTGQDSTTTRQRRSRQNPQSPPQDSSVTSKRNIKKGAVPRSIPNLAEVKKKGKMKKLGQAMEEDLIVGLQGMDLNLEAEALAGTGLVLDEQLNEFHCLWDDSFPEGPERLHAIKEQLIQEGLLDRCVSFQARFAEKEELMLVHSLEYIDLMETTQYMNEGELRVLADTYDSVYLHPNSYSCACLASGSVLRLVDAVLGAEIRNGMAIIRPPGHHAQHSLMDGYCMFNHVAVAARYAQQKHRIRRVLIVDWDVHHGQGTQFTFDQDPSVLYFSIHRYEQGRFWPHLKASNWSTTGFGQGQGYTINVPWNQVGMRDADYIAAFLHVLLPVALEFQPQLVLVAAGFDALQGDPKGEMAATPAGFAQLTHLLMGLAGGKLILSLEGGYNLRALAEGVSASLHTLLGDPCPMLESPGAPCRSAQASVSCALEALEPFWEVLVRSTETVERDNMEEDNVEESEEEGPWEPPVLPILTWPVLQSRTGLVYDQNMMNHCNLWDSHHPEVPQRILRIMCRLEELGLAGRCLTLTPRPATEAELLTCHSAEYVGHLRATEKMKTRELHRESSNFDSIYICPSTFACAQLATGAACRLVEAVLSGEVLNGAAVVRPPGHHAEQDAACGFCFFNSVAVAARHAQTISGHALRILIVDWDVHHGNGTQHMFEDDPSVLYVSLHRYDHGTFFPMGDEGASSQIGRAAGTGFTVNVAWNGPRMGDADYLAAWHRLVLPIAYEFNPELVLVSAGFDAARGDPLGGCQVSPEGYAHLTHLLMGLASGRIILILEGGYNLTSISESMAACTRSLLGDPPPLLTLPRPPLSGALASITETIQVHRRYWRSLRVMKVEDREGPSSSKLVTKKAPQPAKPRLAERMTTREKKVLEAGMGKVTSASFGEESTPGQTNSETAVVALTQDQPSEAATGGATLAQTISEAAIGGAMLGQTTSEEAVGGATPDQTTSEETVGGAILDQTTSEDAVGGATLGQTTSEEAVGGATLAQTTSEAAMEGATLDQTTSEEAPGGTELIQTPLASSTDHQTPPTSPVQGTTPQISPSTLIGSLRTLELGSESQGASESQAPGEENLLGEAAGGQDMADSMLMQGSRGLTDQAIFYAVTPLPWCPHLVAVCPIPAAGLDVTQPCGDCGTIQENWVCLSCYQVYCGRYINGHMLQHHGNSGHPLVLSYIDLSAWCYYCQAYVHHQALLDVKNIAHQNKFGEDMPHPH
Kind of series: Inhibition of HDAC6 (unknown origin) using Boc-Lys(Ac)-pNA as substrate preincubated for 20 mins followed by substrate addition and further incubated for 90 mins by fluorescence assay.

Series [10] deals with T2, Protein deacetylase HDAC6 (Homo sapiens) (UniProt Q9UBN7).
T2 sequence (whole entry): T1 sequence (Q9UBN7 whole entry)
The experiment in a line: Inhibition of HDAC6 (unknown origin) at 10 uM using Boc-Lys(Ac)-pNA as substrate preincubated for 20 mins followed by substrate addition and further incubated for 90 mins by fluorescence assay relative to control.

Series [11] in a line: Drug concentration in plasma of Sprague-Dawley rat at 2 mg/kg, iv measured after 5 mins by LC-MS/MS analysis. In kind it is ADME, organism-based.
Series [12] can be described thus: Terminal half life in Sprague-Dawley rat at 2 mg/kg, iv measured up to 24 hrs by LC-MS/MS analysis. As to conditions: in vivo, read-out: beta t1/2 (converted). The format is ADME, organism-based.
Series [13] in a line: Clearance in Sprague-Dawley rat at 2 mg/kg, iv measured up to 24 hrs by LC-MS/MS analysis. The format is ADME, organism-based. To be noted: in vivo.
A short description of series [14]: Apparent volume of distribution at steady state in Sprague-Dawley rat at 2 mg/kg, iv measured up to 24 hrs by LC-MS/MS analysis. In kind it is ADME, organism-based. To be noted: in vivo, read-out: Vdss(app).
Series [15] can be described thus: AUC (0 to infinity) in Sprague-Dawley rat at 20 mg/kg, po measured up to 24 hrs by LC-MS/MS analysis. In kind it is ADME, organism-based. Also on record: dose 20 mg/kg, route oral, time infinity. To be noted: in vivo.
The test system of series [16] is HCT-116. The experiment in a line: Antitumor activity against human HCT116 cells xenografted in BALB/c nude mouse assessed as tumor growth inhibition at 25 mg/kg, ip administered every 3 days for 21 days and measured every second day for 21 days during compound dosing by digital caliper method relative to control. In kind it is functional. As to conditions: HCT-116, ip, read-out: TGI. Background: Xenograft models place foreign cells or tissue in a host animal.

The test system of series [17] is HCT-116. Kind of series: Antitumor activity against human HCT116 cells xenografted in BALB/c nude mouse assessed as tumor growth inhibition at 50 mg/kg, ip administered every 3 days for 21 days and measured every second day for 21 days during compound dosing by digital caliper method relative to control. In kind it is functional. To be noted: HCT-116, ip, read-out: TGI.

Series [18] is described as follows: Selectivity index, ratio of IC50 for human MCF10A cells assessed as reduction in cell growth measured after 48 hrs by CCK8 assay to IC50 for human HCT116 cells assessed as reduction in cell growth measured after 48 hrs by CCK8. In kind it is toxicity. To be noted: MCF10A cells versus HCT116 cells, read-out: Ratio IC50.
Series [19] can be described thus: Toxicity in KM mouse assessed as weight loss at 262.1 to 640 mg/kg, ip administered as single dose measured 3 times per week for 14 days. In kind it is organism-based. To be noted: in vivo, 336 h.
A short description of series [20]: Toxicity in KM mouse assessed as behavioral changes at <262 mg/kg, ip administered as single dose measured daily for 14 days. In kind it is organism-based. To be noted: in vivo, 336 h.

Sequence of Histone deacetylase 1 (Q13547 whole entry): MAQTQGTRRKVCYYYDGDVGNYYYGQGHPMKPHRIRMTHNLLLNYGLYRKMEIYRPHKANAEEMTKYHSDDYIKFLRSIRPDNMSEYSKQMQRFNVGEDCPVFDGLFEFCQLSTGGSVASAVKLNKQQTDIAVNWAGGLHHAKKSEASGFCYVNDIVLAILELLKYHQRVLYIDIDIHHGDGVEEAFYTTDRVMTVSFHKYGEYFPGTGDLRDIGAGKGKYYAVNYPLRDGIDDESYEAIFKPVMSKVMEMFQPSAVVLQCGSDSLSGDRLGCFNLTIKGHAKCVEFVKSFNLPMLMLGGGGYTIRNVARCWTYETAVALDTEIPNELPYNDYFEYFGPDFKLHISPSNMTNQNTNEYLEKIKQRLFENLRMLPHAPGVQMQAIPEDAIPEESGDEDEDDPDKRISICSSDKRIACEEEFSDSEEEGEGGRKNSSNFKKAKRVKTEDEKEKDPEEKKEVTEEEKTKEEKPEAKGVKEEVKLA

Turning to `O=C(C[C@@H](CC1CCCC1)C(=O)N1CC2(CC2)C[C@H]1c1nc(-c2ccc(F)cc2C(F)(F)F)no1)NO`, the Activity in series [1] was determined as 5%; in series [3], 87.8%; in [4] it was 4.03%; in series [5], 80.9%; in series [6], 5.55%; in series [7], 1.01%. Also, the Activity entry in series [19] is “Toxic”; in series [20] it was “Non-Toxic”. Further, the IC50 (in general, the concentration needed to halve the response being measured) was 2580 nM in series [2], over 10 µM in series [8] and over 10 µM in [9]. Also, the inhibition (usually the percentage by which the read-out fell short of the control) in series [10] worked out at 0.41%. In [11], the concentration at 5 min stood at 136 ng/mL. The half-life in series [12] was 222 min. Moreover, in series [13], the CL was determined as 26.68 L/kg/h. In addition, in series [14], the Vd is 5.26 L/kg. Besides, in [15], the area under the curve (AUC) (commonly concentration integrated over time) worked out at 940 ng·h/mL. In series [16], the inhibition in vivo at 25 mg/kg was 64%. Besides, the inhibition in vivo at 50 mg/kg in series [17] was found to be 72.5%. The selectivity ratio at 48 h in series [18] is 9.
